Legend:
Type in all cases: cell-based
[1] = system: Bel-7404 (human liver carcinoma); test: MTT antiproliferative/cytotoxicity assay, Bel-7404; details: mean of three independent determinations
Method: (§1) Melting points were determined on an X4 apparatus (Beijing Tech Instrument Co. Ltd., Beijing, China) and were uncorrected. The ^1H and ^13C NMR spectra were recorded in CDCl3 on a Bruker AV-600 spectrometer at working frequencies of 600 and 150 MHz and a Bruker AV-300 spectrometer at working frequencies of 300 and 75 MHz, respectively. Chemical shifts are expressed in parts per million (δ) values and coupling constants (J) in Hertz. Infrared spectra were measured with a Thermo Scientific Nicolet IS-10 Spectrophotometer (Thermo Scientific, USA). HREIMS was measured on an Agilent 6210 TOFMS instrument (Agilent Technologies, USA). The cell proliferation assay was undertaken by a MTT method using 96-well plates on a […] MK3 analysis spectrometer (Thermo Scientific, Shanghai, China).
(§2) The detailed procedure had been reported in our previous work.

[2] = MTT cytotoxicity assay, 293T normal cells; details: human, HEK-293T normal kidney epithelial cells, mean of three independent determinations
Method: as §1, §2

[3] = system: HeLa (human cervical carcinoma); test: MTT antiproliferative/cytotoxicity assay, HeLa; details: mean of three independent determinations
Method: as §1, §2

| Compound | IC50 [1] [µM] | IC50 [2] [µM] | IC50 [3] [µM] |
| --- | --- | --- | --- |
| CC(=O)Oc1ccc2c(c1)CCC1C2CCC2(C)C(=NNC(N)=S)CCC12 (centres unmarked) [Compound 2] | > 200 | > 200 | 42 |
| CC12CCC3c4ccc(O)cc4CCC3C1CCC2=NNC(N)=S (centres unmarked) [Compound 1] | 19 |  | 34 |

From PMC5664251, “Synthesis and Cytotoxic Evaluation of Steroidal Copper (Cu (II)) Complexes” (Bioinorganic Chemistry and Applications, 2017)
